Reference: patent publication US20080260716A1, “Method and Composition for High Level Disinfection Employing Quaternary Ammonium Compounds” (priority 2004, published 2008)
Read-outs that look alike come from different tables or passages of the source.

Assays:
C. sporogens spores = assay: AOAC sporicidal test, kill time; format: cell-based; conditions: 50° C.
[1] = test system: Mycobacterium terrae, B. subtilis, C. sporogens; parameters: key: satisfies the FDA requirement for high level disinfection (“HLD”); fails to do so (“F”)
B. subtilis spores = assay: AOAC sporicidal test, kill time; format: cell-based; conditions: 50° C.
Mycobacterium terrae = assay: AOAC tuberculocidal test, kill time; format: cell-based; conditions: for Kill Time M. terrae: tests 7.1-7.4, 1% of the quat, 50° C.
From the text: These standards are based on the known or possible risk of contamination of a particular medical device by a particular micro-organism, the pathogenic nature of the organism and other principles in infection control. […] The test panels and criteria are different for “low”, “intermediate” or “high-level disinfection”. These terms are herein used in accordance with current Food and Drug Administration (“FDA”) criteria for levels of disinfection which are detailed in Premarket Notification [510(k)] Submissions for Liquid Chemical Sterilants and High Level Disinfectants FDA 1997: “A germicide that inactivates all microbial pathogens except large number of bacterial endospores when used according to labelling”. In brief, the FDA regulatory requirement for high level disinfectants includes as the most challenging test a 100% kill of Mycobacterium tuberculosis var. bovis (or a specific strain of a suitable surrogate, such as Mycobacterium terrae) in 400 p.p.m. hard water in the presence of 2% horse serum in a quantitative tuberculocidal test.
In the following tables unless otherwise specified references to “kill time” mean the time required to achieve complete kill as defined in the relevant AOAC test (more particularly identified in annexure 1). “No kill” means less than 2 log reduction from the initial population. Unless otherwise specified “QUAT” is benzalkonium chloride, specifically Gardiquat NC-50 (Albright & Wilson). Test points for vegetative bacteria (M. terrae) were 2, 5, 10, 20 and 60 mins. Test points for spores were 0.5, 1, 2, 4, 16, 24, 48 hours. The last column in each table indicates whether the tested combination satisfies the FDA requirement for high level disinfection (“HLD”) or fails to do so (“F”).
AOAC tests for determination of High level Disinfection as defined in current FDA criteria (detailed in “Premarket Notification [510(k)] Submissions for Liquid Chemical Sterilants and High Level Disinfectants FDA 1993”.):
AOAC Tuberculocidal Activity of Disinfectants
AOAC Ref No 965.12, AOAC Official Methods of Analysis (1995)

[2] = 30 min, 20° C. (Sporox); cited from earlier work
[3] = tests 7.1-7.4, 1% of the quat, 50° C.

Row | Molecule | HLD or F [1, 3] | Kill Time M. terrae (Mycobacterium terrae) [min] | Kill Time C. sporogens (C. sporogens spores; tests 7.2-7.4, 1% of the quat) [h] | Kill Time B. subtilis (B. subtilis spores; tests 7.2-7.4, 1% of the quat) [h] | other results
1 | CCCCCCCCCC[N+](C)(C)CCCCCCCCCC.[Cl-] [Quat(1), Didecyl Dimethyl Ammonium Chloride] | HLD | <10 | – | – | Kill Time C. sporogens (C. sporogens spores; test 7.1, 1% Quat(1)): <2 h; Kill Time B. subtilis (B. subtilis spores; test 7.1, 1% Quat(1)): <2 h
2 | CCCCCCCC[N+](C)(C)CCCCCCCC.[Cl-] [Quat(2), Dioctyl Dimethyl Ammonium Chloride] | HLD | <10 | <2 | <2 | –
3 | CC(C)(C)CC(C)(C)c1ccc(OCCOCC[N+](C)(C)Cc2ccccc2)cc1 [benzethonium chloride, reference compound] | – | – | – | – | HLD or F ([1]; test 1.3, 0.25% benzethonium chloride, 0.25% Triton X-100, 5% isopropanol, 62° C. + ultrasound 20 min/hr): F; effectiveness against Mycobacterium (Mycobacterium terrae; 0.25%, temperatures above 60° C., with ultrasound): not effective
4 | OO [peroxide, hydrogen peroxide] | – | – | – | – | minimum effective concentration for high-level disinfection [2]: 6.0%
5 | N-Alkyl Dimethyl Ammonium Chloride [Quat(3)] | HLD | <10 | <2 | <2 | –
